Counter-ions that a name gives are not always drawn. Like-named read-outs stand apart in the source and are kept apart here.
Tests used:
[1] = molecular target: T1, Human 5-HT4 receptor (5-HT4b) (Homo sapiens, UniProt Q13639); test: Test Example 3: Human 5-HT4 receptor binding assay, membranes of CHO-K1 cells stably expressing 5-HT4b receptors (Table 99); conditions: mean value of each group
T1 construct: expressed in transfected cells; membrane preparation
Description: To an assay tube were added 0.1 nM [^3H]-GR113808 {chemical name: [1-[2-(methylsulfonylamino) ethyl]-4-piperidinyl]methyl 1-methylindole-3-carboxylate}, receptor membrane preparations, and Hepes buffer (50 mM, pH 7.4, 4° C., 1 ml) containing test compounds or 30 μM serotonin; and the mixture was incubated at 37° C. for 30 minutes. On quenching the reaction, the mixture was rapidly filtered on whatman GF/B filter, which was presoaked in 0.1% polyethyleneimine for 1 hour, by using Brandel cell Harvester, and washed with ice-cooled 50 mM Tris-HCl (pH 7.7, 4 ml) three times. To the filter after filtration was added a liquid scintillator (Ecoscint), and then a radioactivity was determined by a liquid scintillation counter.
50% Inhibition concentrations (IC50) were determined from inhibition rates of test compounds to specific bindings which were obtained by subtracting nonspecific bindings from total binding amounts of [^3H]-GR113808.
Human 5-HT4 receptor membrane preparations were prepared from CHO-K^1 cells which stably express 5-HT4b receptors, and human 5-HT4 receptor binding assay was carried out in a similar manner as in the guinea pig 5-HT4 receptor binding assay. The following tables show results of serotonin 4 (5-HT4) receptor binding assay. In the following tables, the compounds used in the test are shown in numbers which correspond to the Example numbers above where the preparations of the compounds are described.

[2] = molecular target: T2, human 5-HT4b receptor (Homo sapiens, UniProt Q13639); test: Test Example 4: Serotonin 4 (5-HT4) receptor agonist activity assay, cAMP HTRF in CHO cells (Table 100); assay type: cell-based; conditions: mean value; for Emax: CHO, 0.25 h, intrinsic activity, maximal activity of 5-HT defined as 100%, read-out: IA (%); for EC50: concentration showing 50% of IA
T2 construct: expressed in transfected cells; host or cells: CHO cells (G418 selection)
T2 sequence (Q13639 whole entry): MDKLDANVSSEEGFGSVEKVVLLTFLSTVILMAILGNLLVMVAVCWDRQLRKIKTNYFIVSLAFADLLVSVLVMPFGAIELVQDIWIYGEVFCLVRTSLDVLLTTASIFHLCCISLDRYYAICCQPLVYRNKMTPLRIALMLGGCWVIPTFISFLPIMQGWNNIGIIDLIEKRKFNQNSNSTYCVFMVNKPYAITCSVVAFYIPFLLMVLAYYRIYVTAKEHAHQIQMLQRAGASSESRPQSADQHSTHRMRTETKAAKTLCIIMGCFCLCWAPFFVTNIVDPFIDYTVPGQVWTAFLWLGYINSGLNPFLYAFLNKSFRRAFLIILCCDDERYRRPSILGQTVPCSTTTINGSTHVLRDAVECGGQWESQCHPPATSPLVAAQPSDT
Description: The cAMP measurement test used herein was carried out by using CISBIO HTRF (trademark) cAMP Hirange kit according to the manufacturer's instructions attached therewith.
CHO cells expressing human 5-HT4b receptor were incubated in Medium 1 [DMEM/1% NEAA, 1% penicillin/streptomycin (P/S), 0.2 mg/mL GENETICIN (G418), 10% FBS] at 37° C. under 5% CO2 condition. Then, the cells were put into Medium 2 (DMEM/10000 cut FBS, G-418, P/S, NEAA) for 1 to 2 hours, and collected by treating with trypsin containing EDTA. The collected cells were suspended in Assay Buffer 1 [100 mM Hanks/HEPES buffer (pH 7.4)], the suspended cells were mixed with the testing compound on 384-well plates, and the cells were incubated at 31° C. for 15 minutes. To the cells were added cAMP-cryptate solution and cAMP-d2 solution, and they were incubated at room temperature for 1 hour. Then, time-resolved fluorescence was measured by En Vision (excitation wavelength: 330 nm, fluorescence wavelength: 620/665 nm).
An intrinsic activity of the compound [IA (%)] and a concentration showing 50% of IA [EC50 (nM)] were calculated from the obtained results. In particular, the intrinsic activity (IA) was calculated on the basis of the maximal activity of 5-HT (measured from 10^−11 M to 10^−7 M) defined as 100%.
In the following table, the compounds used in the test are shown in numbers which correspond to the Example numbers above where the preparations of the compounds are described.

[3] = molecular target: T3, 5-HT4 receptor (Cavia porcellus, UniProt O70528); test: Test Example 3: Guinea pig 5-HT4 receptor binding assay, [3H]-GR113808, striatum membranes (Table 98)
T3 construct: striatum was isolated which was cryopreserved at −80° C. until use; from tissue; host or cells: guinea pig (Slc-Hartley) striatum membranes
T3 sequence (O70528 whole entry): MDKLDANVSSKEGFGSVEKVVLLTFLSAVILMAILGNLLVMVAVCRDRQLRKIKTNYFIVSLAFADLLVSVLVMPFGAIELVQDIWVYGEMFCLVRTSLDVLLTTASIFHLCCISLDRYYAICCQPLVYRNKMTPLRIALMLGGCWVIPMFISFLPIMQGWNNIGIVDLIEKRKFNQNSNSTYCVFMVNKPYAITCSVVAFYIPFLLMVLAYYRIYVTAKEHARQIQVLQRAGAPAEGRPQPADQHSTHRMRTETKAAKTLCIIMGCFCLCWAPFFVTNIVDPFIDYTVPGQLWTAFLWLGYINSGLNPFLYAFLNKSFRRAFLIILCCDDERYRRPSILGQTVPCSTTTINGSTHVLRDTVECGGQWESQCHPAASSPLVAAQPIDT
Outline: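 Striatal membranes from Slc-Hartley guinea pigs were incubated with 0.1 nM [3H]-GR113808 and test compounds in 50 mM Hepes pH 7.4 at 37° C for 30 min; nonspecific binding was defined with 30 μM serotonin. Bound radioactivity was collected by filtration, and IC50 was derived from inhibition of specific binding.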

[4] = Guinea pig 5-HT4 receptor binding assay, [3H]-GR113808, striatum membranes, mean value of each group, read-out: IC50

T1 sequence (Q13639 whole entry): as the sequence (Q13639 whole entry) above

Structure (SMILES)	IC50 [1] [nM]	Emax [2] [%]	EC50 [2] [nM]	IC50 [3, 4] [nM]	IC50 [3] [nM]
CC(C)c1nn(-c2noc([C@H]3C[C@@H](NCCC4CCCCO4)C3)n2)c2c(F)cccc12 (relative stereo) [Example 597, cis-3-{3-[7-fluoro-3-(propan-2-yl)-1H-indazol-1-yl]-1,2,4-oxadiazol-5-yl}-N-[2-(tetrahydro-2H-pyran-2-yl)ethyl]cyclobutanamine]	26.9	–	–	–	–
CC(C)c1nn(-c2noc([C@H]3C[C@H](NCCC4CCCCO4)C3)n2)c2c(F)cccc12 (relative stereo) [Example 598, trans-3-{3-[7-fluoro-3-(propan-2-yl)-1H-indazol-1-yl]-1,2,4-oxadiazol-5-yl}-N-[2-(tetrahydro-2H-pyran-2-yl)ethyl]cyclobutanamine]	< 20	–	–	–	–
CC(C)c1nn(-c2noc([C@H]3CC[C@H](NCC4CCCO4)CC3)n2)c2c(F)cccc12 (relative stereo) [Example 620, trans-4-{3-[7-fluoro-3-(propan-2-yl)-1H-indazol-1-yl]-1,2,4-oxadiazol-5-yl}-N-(tetrahydrofuran-2-ylmethyl)cyclohexanamine]	< 20	–	–	–	–
CC(=O)N1CCCC(N[C@H]2CC[C@@H](c3nc(-n4nc(C(C)C)c5cccc(F)c54)no3)CC2)C1 (relative stereo) [Example 622, 1-{3-[(cis-4-{3-[7-fluoro-3-(propan-2-yl)-1H-indazol-1-yl]-1,2,4-oxadiazol-5-yl}cyclohexyl)amino]piperidin-1-yl}ethanone]	123	–	–	–	–
CC(C)c1nn(-c2noc([C@H]3CC[C@@H](NC4CCCOC4)CC3)n2)c2c(F)cccc12 (relative stereo) [Example 623, N-(cis-4-{3-[7-fluoro-3-(propan-2-yl)-1H-indazol-1-yl]-1,2,4-oxadiazol-5-yl}cyclohexyl)tetrahydro-2H-pyran-3-amine]	105	–	–	–	–
CC(C)c1nn(-c2noc(C3CCN(CCc4cccnc4)CC3)n2)c2c(F)cccc12 [Example 399, 7-fluoro-3-(propan-2-yl)-1-(5-{1-[2-(pyridin-3-yl)ethyl]piperidin-4-yl}-1,2,4-oxadiazol-3-yl)-1H-indazole]	20.2	–	–	–	–
CC(C)c1nn(-c2noc(C3CCN(C(C)(C)C(=O)OC(C)(C)C)CC3)n2)c2c(F)cccc12 [Example 400, tert-butyl 2-(4-{3-[7-fluoro-3-(propan-2-yl)-1H-indazol-1-yl]-1,2,4-oxadiazol-5-yl}piperidin-1-yl)-2-methylpropanoate]	225	–	–	–	–
CCc1nn(-c2noc(C3CCN(CC4CCN(C(C)=O)CC4)CC3)n2)c2c(F)c(F)ccc12 [Example 478, 1-[4-({4-[3-(3-ethyl-6,7-difluoro-1H-indazol-1-yl)-1,2,4-oxadiazol-5-yl]piperidin-1-yl}methyl)piperidin-1-yl]ethanone trifluoroacetate]	–	68.7	32.4	< 20	–
COCC(=O)N1CCC(CN2CCC(c3nc(-n4nc(C(C)C)c5ccc(F)c(F)c54)no3)CC2)CC1 [Example 481, 1-{4-[(4-{3-[6,7-difluoro-3-(propan-2-yl)-1H-indazol-1-yl]-1,2,4-oxadiazol-5-yl}piperidin-1-yl)methyl]piperidin-1-yl}-2-methoxyethanone trifluoroacetate]	–	73.8	7.1	< 20	–
COC(=O)N1CCC(CN2CCC(c3nc(-n4nc(C(C)C)c5ccc(F)c(F)c54)no3)CC2)CC1 [Example 482, methyl 4-[(4-{3-[6,7-difluoro-3-(propan-2-yl)-1H-indazol-1-yl]-1,2,4-oxadiazol-5-yl}piperidin-1-yl)methyl]piperidine-1-carboxylate trifluoroacetate]	–	70.5	8.9	23.6	–
CC(=O)N1CCC(N2CC[C@@H](Cc3nc(-n4nc(C(C)C)c5cccc(F)c54)no3)C2)CC1 [Example 507, 1-{4-[(3S)-3-({3-[7-fluoro-3-(propan-2-yl)-1H-indazol-1-yl]-1,2,4-oxadiazol-5-yl}methyl)pyrrolidin-1-yl]piperidin-1-yl}ethanone]	–	84	3.9	< 20	–
CC(C)c1nn(-c2noc(C3CCN(C4CCN(C(=O)CO)CC4)CC3)n2)c2ccccc12 [Example 519]	–	81.1	33.5	27.1	–
CC(C)c1nn(-c2noc(C3CCN(C4CCN(C(=O)CO)CC4)CC3)n2)c2c(F)c(F)ccc12 [Example 520, 1-(4-{3-[6,7-difluoro-3-(propan-2-yl)-1H-indazol-1-yl]-1,2,4-oxadiazol-5-yl}-1,4′-bipiperidin-1′-yl)-2-hydroxyethanone]	–	82.9	17.6	< 20	–
CC(C)c1nn(-c2noc(C3CCN(C[C@H]4CCCN4C(=O)CO)CC3)n2)c2c(F)cccc12 [Example 529, 1-{(2R)-2-[(4-{3-[7-fluoro-3-(propan-2-yl)-1H-indazol-1-yl]-1,2,4-oxadiazol-5-yl}piperidin-1-yl)methyl]pyrrolidin-1-yl}-2-hydroxyethanone hydrochloride]	–	95.5	1.2	< 20	–
CC(C)c1nn(-c2noc(C3CCN(C4CCN(C(=O)CO)CC4C)CC3)n2)c2c(F)cccc12 (stereo not shown) [Example 530, 1-(4-{3-[7-fluoro-3-(propan-2-yl)-1H-indazol-1-yl]-1,2,4-oxadiazol-5-yl}-3′-methyl-1,4′-bipiperidin-1′-yl)-2-hydroxyethanone]	–	97	3.1	< 20	–
CC(C)c1nn(-c2noc(C3CCN([C@H]4C[C@H]5CC[C@@H](C4)N5C(=O)CO)CC3)n2)c2c(F)cccc12 [Example 532, 1-[(3-endo)-3-(4-{3-[7-fluoro-3-(propan-2-yl)-1H-indazol-1-yl]-1,2,4-oxadiazol-5-yl}piperidin-1-yl)-8-azabicyclo[3.2.1]oct-8-yl]-2-hydroxyethanone]	–	99	5	–	< 20
CC(C)c1nn(-c2noc(C3CCN([C@@H]4C[C@H]5CC[C@@H](C4)N5C(=O)CO)CC3)n2)c2c(F)cccc12 [Example 533, 1-[(3-exo)-3-(4-{3-[7-fluoro-3-(propan-2-yl)-1H-indazol-1-yl]-1,2,4-oxadiazol-5-yl}piperidin-1-yl)-8-azabicyclo[3.2.1]oct-8-yl]-2-hydroxyethanone]	–	102	3.8	–	< 20
CC(C)c1nn(-c2noc(C3(O)CCN(C4CCN(C(=O)CO)CC4)CC3)n2)c2c(F)cccc12 [Example 551, 1-(4-{3-[7-fluoro-3-(propan-2-yl)-1H-indazol-1-yl]-1,2,4-oxadiazol-5-yl}-4-hydroxy-1,4′-bipiperidin-1′-yl)-2-hydroxyethanone]	–	70.4	18.5	–	81.9
CCc1nn(-c2noc(C3CCN(C4CCN(C(=O)CO)CC4)CC3)n2)c2c(F)cccc12 [compound 244, hydrochloride]	–	63.5	3.9	< 20	–
CCc1nn(-c2noc(C3CCN(CC4CCN(C(=O)CO)CC4)CC3)n2)c2c(F)cccc12 [compound 246, 1-[4-({4-[3-(3-ethyl-7-fluoro-1H-indazol-1-yl)-1,2,4-oxadiazol-5-yl]piperidin-1-yl}methyl)piperidin-1-yl]-2-hydroxyethanone]	–	56.6	21.1	< 20	–
CCc1nn(-c2noc(C3CCN(CC4CN(C(=O)CO)C4)CC3)n2)c2c(F)cccc12 [compound 250, 1-[3-({4-[3-(3-ethyl-7-fluoro-1H-indazol-1-yl)-1,2,4-oxadiazol-5-yl]piperidin-1-yl}methyl)azetidin-1-yl]-2-hydroxyethanone]	–	79.7	3.5	< 20	–
